Source: patent US20130018039A1, “IMIDAZOLYL-IMIDAZOLES AS KINASE INHIBITORS” (priority 2010, published 2013)

Molecular target: T1, RIPK2 (full length FLAG His tagged RIPK2; RIP2 kinase) (Homo sapiens, UniProt O43353)
T1 construct: Full length FLAG His tagged RIPK2 was purified from a Baculovirus expression system; FLAG (N); 6His (N); made in house; host or cells: Spodoptera frugiperda (Sf9) insect cells, baculovirus
Experiment: Fluorescent polarization based binding assay, competition with a fluorescently labeled ATP competitive ligand at the ATP binding pocket of RIPK2
Conditions: pIC50s averaged, minimum of 2 experiments; fluorescent ligand 5 nM; read-out: mean pIC50 (converted)
Description: A fluorescent polarization based binding assay was developed to quantitate interaction of novel test compounds at the ATP binding pocket of RIPK2, by competition with a fluorescently labeled ATP competitive ligand. Full length FLAG His tagged RIPK2 was purified from a Baculovirus expression system and was used at a final assay concentration of twice the KDapparent. A fluorescent labeled ligand (5-({[2-({[3-({4-[(5-hydroxy-2-methylphenyl)amino]-2-pyrimidinyl}amino)phenyl]carbonyl}amino)ethyl]amino}carbonyl)-2-(6-hydroxy-3-oxo-3H-xanthen-9-yl)benzoic acid, prepared as described below) was used at a final assay concentration of 5 nM. Both the enzyme and ligand were prepared in solutions in 50 mM HEPES pH7.5, 150 mM NaCl, 10 mM MgCl2, 1 mM DTT, and 1 mM CHAPS. Test compounds were prepared in 100% DMSO and […] was dispensed to individual wells of a multiwell plate. Next, 5 ul RIPK2 was added to the test compounds at twice the final assay concentration, and incubated at room temperature for 10 minutes. […] Finally, samples were read on an instrument capable of measuring fluorescent polarization. Test compound inhibition was expressed as percent (%) inhibition of internal assay controls.
For concentration response experiments, normalized data were fit and pIC50s determined using conventional techniques. […]

T1 sequence (O43353 whole entry): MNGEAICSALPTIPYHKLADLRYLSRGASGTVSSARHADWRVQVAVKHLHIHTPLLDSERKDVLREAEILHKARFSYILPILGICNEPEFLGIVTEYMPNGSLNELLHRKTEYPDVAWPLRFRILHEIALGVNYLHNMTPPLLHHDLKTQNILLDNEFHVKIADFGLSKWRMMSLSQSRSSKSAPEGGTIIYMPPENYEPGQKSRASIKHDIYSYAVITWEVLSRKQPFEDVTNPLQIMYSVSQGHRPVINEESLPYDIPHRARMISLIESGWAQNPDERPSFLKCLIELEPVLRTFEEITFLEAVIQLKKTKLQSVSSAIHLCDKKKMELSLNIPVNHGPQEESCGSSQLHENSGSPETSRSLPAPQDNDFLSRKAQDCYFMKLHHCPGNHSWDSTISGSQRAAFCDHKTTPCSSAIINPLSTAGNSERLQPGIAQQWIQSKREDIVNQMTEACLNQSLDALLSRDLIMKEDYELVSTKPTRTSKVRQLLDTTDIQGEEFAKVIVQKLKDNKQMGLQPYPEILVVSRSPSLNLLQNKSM

Compound	IC50
CNC(=O)c1ccc2c(c1)nc(-c1c[nH]c(-c3ccc(Cl)cc3)n1)n2Cc1ccccn1 [Example 2, 2-[2-(4-chlorophenyl)-1H-imidazol-4-yl]-N-methyl-1-(2-pyridinylmethyl)-1H-benzimidazole-5-carboxamide]	10 µM
COCCNC(=O)c1ccc2c(c1)nc(-c1cnc(-c3ccccc3)[nH]1)n2CCOC [Example 39, N,1-bis[2-(methyloxy)ethyl]-2-(2-phenyl-1H-imidazol-4-yl)-1H-benzimidazole-5-carboxamide]	10 µM
